Assay results published in PubChem BioAssay (NCI).
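A five-concentration, 48-hour dose response in 96-well plates underlies each endpoint, interpolated linearly between surrounding concentrations. Here, GI50 denotes the concentration required for 50% inhibition of growth. TGI is the concentration that stops growth completely.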

Columns and labels:
Test in all cases: growth of human tumour cells (NCI), 48 h
786-0 renal = system: 786-0 renal
A549 NSCLC = system: A549 NSCLC
ACHN renal = system: ACHN renal
BT-549 breast = system: BT-549 breast
CAKI-1 renal = system: CAKI-1 renal
CCRF-CEM leukemia = system: CCRF-CEM leukemia
COLO 205 colon = system: COLO 205 colon
DU-145 prostate = system: DU-145 prostate
EKVX NSCLC = system: EKVX NSCLC
HCC-2998 colon = system: HCC-2998 colon
HCT-116 colon = system: HCT-116 colon
HCT-15 colon = system: HCT-15 colon
HL-60(TB) leukemia = system: HL-60(TB) leukemia
HOP-62 NSCLC = system: HOP-62 NSCLC
HOP-92 NSCLC = system: HOP-92 NSCLC
HS 578T breast = system: HS 578T breast
HT29 colon = system: HT29 colon
IGROV1 ovarian = system: IGROV1 ovarian
K-562 leukemia = system: K-562 leukemia
KM12 colon = system: KM12 colon
M14 melanoma = system: M14 melanoma
MALME-3M melanoma = system: MALME-3M melanoma
MCF7 breast = system: MCF7 breast
MDA-MB-231 breast = system: MDA-MB-231 breast
MDA-MB-435 = system: MDA-MB-435
MOLT-4 leukemia = system: MOLT-4 leukemia
NCI-H226 lung = system: NCI-H226 lung
NCI-H23 lung = system: NCI-H23 lung
NCI-H522 lung = system: NCI-H522 lung
NCI/ADR-RES ovarian = system: NCI/ADR-RES ovarian
OVCAR-3 ovarian = system: OVCAR-3 ovarian
OVCAR-4 ovarian = system: OVCAR-4 ovarian
OVCAR-5 ovarian = system: OVCAR-5 ovarian
OVCAR-8 ovarian = system: OVCAR-8 ovarian
PC-3 prostate = system: PC-3 prostate
RPMI-8226 leukemia = system: RPMI-8226 leukemia
RXF 393 renal = system: RXF 393 renal
SF-268 CNS = system: SF-268 CNS
SF-295 CNS = system: SF-295 CNS
SF-539 CNS = system: SF-539 CNS
SK-MEL-2 melanoma = system: SK-MEL-2 melanoma
SK-MEL-28 melanoma = system: SK-MEL-28 melanoma
SK-MEL-5 melanoma = system: SK-MEL-5 melanoma
SK-OV-3 ovarian = system: SK-OV-3 ovarian
SNB-19 CNS = system: SNB-19 CNS
SNB-75 CNS = system: SNB-75 CNS
SW-620 colon = system: SW-620 colon
T-47D breast = system: T-47D breast
TK-10 renal = system: TK-10 renal
U251 CNS = system: U251 CNS
UACC-257 melanoma = system: UACC-257 melanoma
UACC-62 melanoma = system: UACC-62 melanoma
UO-31 renal = system: UO-31 renal

**Q.** `CCc1ccc(C2=C/C(=C/c3ccc(Cl)cc3)C(=O)N2CCc2ccc(S(N)(=O)=O)cc2)cc1` was tested. Which GI50 (786-0 renal) did it give?
**A.** 1.86 µM

**Q.** What about the TGI (786-0 renal) of the same compound?
**A.** 3.53 µM

**Q.** What about the GI50 (A549 NSCLC) of the same compound?
**A.** 2.6 µM

**Q.** What about the TGI (A549 NSCLC) of the same compound?
**A.** 7.37 µM

**Q.** What about the GI50 (ACHN renal) of the same compound?
**A.** 1.94 µM

**Q.** What about the TGI (ACHN renal) of the same compound?
**A.** 4.23 µM

**Q.** What about the GI50 (BT-549 breast) of the same compound?
**A.** 1.79 µM

**Q.** What about the TGI (BT-549 breast) of the same compound?
**A.** 3.42 µM

**Q.** And the GI50 (CAKI-1 renal)?
**A.** 2.91 µM

**Q.** And the TGI (CAKI-1 renal)?
**A.** 12.4 µM

**Q.** And the GI50 (CCRF-CEM leukemia)?
**A.** 3.44 µM

**Q.** What about the TGI (CCRF-CEM leukemia) of the same compound?
**A.** 32.8 µM

**Q.** What about the GI50 (COLO 205 colon) of the same compound?
**A.** 1.78 µM

**Q.** What about the TGI (COLO 205 colon) of the same compound?
**A.** 3.54 µM

**Q.** And the GI50 (DU-145 prostate)?
**A.** 3.77 µM

**Q.** What about the TGI (DU-145 prostate) of the same compound?
**A.** 15.4 µM

**Q.** And the GI50 (EKVX NSCLC)?
**A.** 2.62 µM

**Q.** And the TGI (EKVX NSCLC)?
**A.** 10 µM

**Q.** What about the GI50 (HCC-2998 colon) of the same compound?
**A.** 2.59 µM

**Q.** And the TGI (HCC-2998 colon)?
**A.** 7.2 µM

**Q.** And the GI50 (HCT-116 colon)?
**A.** 1.74 µM

**Q.** And the TGI (HCT-116 colon)?
**A.** 3.23 µM

**Q.** What about the GI50 (HCT-15 colon) of the same compound?
**A.** 2.98 µM

**Q.** What about the TGI (HCT-15 colon) of the same compound?
**A.** 12.9 µM

**Q.** What about the GI50 (HL-60(TB) leukemia) of the same compound?
**A.** 2.12 µM

**Q.** What about the TGI (HL-60(TB) leukemia) of the same compound?
**A.** 5.35 µM

**Q.** And the GI50 (HOP-62 NSCLC)?
**A.** 2.42 µM

**Q.** And the TGI (HOP-62 NSCLC)?
**A.** 5.86 µM

**Q.** What about the GI50 (HOP-92 NSCLC) of the same compound?
**A.** 1.67 µM

**Q.** What about the TGI (HOP-92 NSCLC) of the same compound?
**A.** 4.8 µM

**Q.** And the GI50 (HS 578T breast)?
**A.** 3.05 µM

**Q.** And the TGI (HS 578T breast)?
**A.** 10.9 µM

**Q.** And the GI50 (HT29 colon)?
**A.** 2.22 µM

**Q.** What about the TGI (HT29 colon) of the same compound?
**A.** 4.58 µM

**Q.** What about the GI50 (IGROV1 ovarian) of the same compound?
**A.** 3.26 µM

**Q.** What about the TGI (IGROV1 ovarian) of the same compound?
**A.** 12.7 µM

**Q.** What about the GI50 (K-562 leukemia) of the same compound?
**A.** 2.81 µM

**Q.** What about the TGI (K-562 leukemia) of the same compound?
**A.** > 100 µM

**Q.** And the GI50 (KM12 colon)?
**A.** 3.02 µM

**Q.** What about the TGI (KM12 colon) of the same compound?
**A.** 10.1 µM

**Q.** And the GI50 (M14 melanoma)?
**A.** 2.08 µM

**Q.** What about the TGI (M14 melanoma) of the same compound?
**A.** 5.26 µM

**Q.** What about the GI50 (MALME-3M melanoma) of the same compound?
**A.** 1.96 µM

**Q.** And the TGI (MALME-3M melanoma)?
**A.** 5.19 µM

**Q.** And the GI50 (MCF7 breast)?
**A.** 2.22 µM

**Q.** And the TGI (MCF7 breast)?
**A.** 7.99 µM

**Q.** And the GI50 (MDA-MB-231 breast)?
**A.** 2.36 µM

**Q.** What about the TGI (MDA-MB-231 breast) of the same compound?
**A.** 5.92 µM

**Q.** And the GI50 (MDA-MB-435)?
**A.** 2.15 µM

**Q.** What about the TGI (MDA-MB-435) of the same compound?
**A.** 4.81 µM

**Q.** And the GI50 (MOLT-4 leukemia)?
**A.** 2.19 µM

**Q.** And the TGI (MOLT-4 leukemia)?
**A.** 6.87 µM

**Q.** What about the GI50 (NCI-H226 lung) of the same compound?
**A.** 2.37 µM

**Q.** And the TGI (NCI-H226 lung)?
**A.** 6.34 µM

**Q.** What about the GI50 (NCI-H23 lung) of the same compound?
**A.** 2.45 µM

**Q.** What about the TGI (NCI-H23 lung) of the same compound?
**A.** 7.46 µM

**Q.** What about the GI50 (NCI-H522 lung) of the same compound?
**A.** 2.55 µM

**Q.** And the TGI (NCI-H522 lung)?
**A.** 7.39 µM

**Q.** And the GI50 (NCI/ADR-RES ovarian)?
**A.** 4.6 µM

**Q.** And the TGI (NCI/ADR-RES ovarian)?
**A.** 41.4 µM

**Q.** And the GI50 (OVCAR-3 ovarian)?
**A.** 2.12 µM

**Q.** And the TGI (OVCAR-3 ovarian)?
**A.** 4.6 µM

**Q.** What about the GI50 (OVCAR-4 ovarian) of the same compound?
**A.** 2.56 µM

**Q.** What about the TGI (OVCAR-4 ovarian) of the same compound?
**A.** 8.03 µM

**Q.** And the GI50 (OVCAR-5 ovarian)?
**A.** 2.18 µM

**Q.** What about the TGI (OVCAR-5 ovarian) of the same compound?
**A.** 5.7 µM

**Q.** And the GI50 (OVCAR-8 ovarian)?
**A.** 3.2 µM

**Q.** What about the TGI (OVCAR-8 ovarian) of the same compound?
**A.** 13.1 µM

**Q.** What about the GI50 (PC-3 prostate) of the same compound?
**A.** 1.9 µM

**Q.** What about the TGI (PC-3 prostate) of the same compound?
**A.** 5.36 µM

**Q.** And the GI50 (RPMI-8226 leukemia)?
**A.** 2.28 µM

**Q.** And the TGI (RPMI-8226 leukemia)?
**A.** 6.14 µM

**Q.** And the GI50 (RXF 393 renal)?
**A.** 1.74 µM

**Q.** What about the TGI (RXF 393 renal) of the same compound?
**A.** 3.79 µM

**Q.** And the GI50 (SF-268 CNS)?
**A.** 4.63 µM

**Q.** What about the TGI (SF-268 CNS) of the same compound?
**A.** 25.9 µM

**Q.** What about the GI50 (SF-295 CNS) of the same compound?
**A.** 1.77 µM

**Q.** What about the TGI (SF-295 CNS) of the same compound?
**A.** 3.72 µM

**Q.** What about the GI50 (SF-539 CNS) of the same compound?
**A.** 2.11 µM

**Q.** And the TGI (SF-539 CNS)?
**A.** 4.12 µM

**Q.** What about the GI50 (SK-MEL-2 melanoma) of the same compound?
**A.** 2.27 µM

**Q.** What about the TGI (SK-MEL-2 melanoma) of the same compound?
**A.** 7.76 µM

**Q.** And the GI50 (SK-MEL-28 melanoma)?
**A.** 4.28 µM

**Q.** What about the TGI (SK-MEL-28 melanoma) of the same compound?
**A.** 15.8 µM

**Q.** And the GI50 (SK-MEL-5 melanoma)?
**A.** 1.63 µM

**Q.** And the TGI (SK-MEL-5 melanoma)?
**A.** 3.07 µM

**Q.** And the GI50 (SK-OV-3 ovarian)?
**A.** 3.11 µM

**Q.** What about the TGI (SK-OV-3 ovarian) of the same compound?
**A.** 9.15 µM

**Q.** And the GI50 (SNB-19 CNS)?
**A.** 2.98 µM

**Q.** What about the TGI (SNB-19 CNS) of the same compound?
**A.** 13.7 µM

**Q.** And the GI50 (SNB-75 CNS)?
**A.** 2.79 µM

**Q.** And the TGI (SNB-75 CNS)?
**A.** 12.9 µM

**Q.** And the GI50 (SW-620 colon)?
**A.** 3 µM

**Q.** And the TGI (SW-620 colon)?
**A.** 11.8 µM

**Q.** And the GI50 (T-47D breast)?
**A.** 3.09 µM

**Q.** And the TGI (T-47D breast)?
**A.** 11.9 µM

**Q.** What about the GI50 (TK-10 renal) of the same compound?
**A.** 2.21 µM

**Q.** And the TGI (TK-10 renal)?
**A.** 7.37 µM

**Q.** What about the GI50 (U251 CNS) of the same compound?
**A.** 2 µM

**Q.** And the TGI (U251 CNS)?
**A.** 4.2 µM

**Q.** And the GI50 (UACC-257 melanoma)?
**A.** 3.79 µM

**Q.** What about the TGI (UACC-257 melanoma) of the same compound?
**A.** 15.3 µM

**Q.** What about the GI50 (UACC-62 melanoma) of the same compound?
**A.** 1.82 µM

**Q.** What about the TGI (UACC-62 melanoma) of the same compound?
**A.** 6.22 µM

**Q.** And the GI50 (UO-31 renal)?
**A.** 1.55 µM

**Q.** What about the TGI (UO-31 renal) of the same compound?
**A.** 4.53 µM
